Patent US20090176743A1 (priority 2005, published 2009)
Entries after “also recorded” stand apart in the source; their conditions may differ.

Key:
ICP22/47 promoter-CAT = experiment: Promoter-CAT expression in NB41A3 cells after Ile deprivation/refeeding; type: cell-based, HSV-1; conditions: NB41A3 mouse neuroblastoma cells
Description: (§1) Vero cells and NB41A3 cells (mouse neuroblastoma cells) were treated by Ile deprivation/refeeding as in the previous experiment. The expression of viral gene promoters was then analyzed. Promoter-chloramphenicol acetyltransferase (CAT) expression from plasmids was measured following transfection of Vero cells treated by Ile-deprivation/refeeding. ICP0 and ICP4 promoter-CAT expression increased 6- or 4-fold, respectively, at early times (0-6 hours post-release) then decreased through 10 hours post-release. In cells from the mouse neuroblastoma cell line, NB41A3, ICP0, ICP4, and ICP22/47 promoter-CAT expression was increased 6-, 10-, or 5-fold, respectively.

ICP0 promoter-CAT [1] = experiment: as above; type: cell-based, HSV-1; conditions: NB41A3 mouse neuroblastoma cells
Description: as §1

ICP4 promoter-CAT [2] = experiment: as above; type: cell-based, HSV-1; conditions: NB41A3 mouse neuroblastoma cells
Description: as §1

ICP0^− virus (n212) = type: cell-based, HSV-1; conditions: for effect of deprivation/refeeding on plating efficiency of ICP0- virus: 42 h in medium lacking the amino acid, normal medium 9 h, then n212 (FIG. 9); for effect of combined arginine and methionine deprivation on plating efficiency of ICP0- virus: three days in media containing all combinations of arginine, methionine and glutamine (FIG. 15)
Description: Like isoleucine deprivation, serum starvation is a method commonly used to synchronize cells to G1 phase of the cell cycle. We then replaced the media with normal growth medium, infected cells with wild type (KOS) or ICP0^− virus (n212), and analyzed cells for cellular DNA content at 3-h intervals (FIG. 7).
We infected the monolayers with an ICP0^− virus (n212) 9 h after the addition of normal medium (FIG. 8).
Media were replaced with normal growth medium, and after a 9-h incubation, monolayers were infected with ICP0^− (n212).
Cells were then infected with wild type or ICPO-virus to determine plating efficiency as described herein. […] In order to determine the role of isoleucine in these experiments, monolayers of cells were incubated for 42 hours in normal medium (Gln+ Ile+) or media lacking Ile, Gln, or both. Cells were then infected with wild type or ICP0^− virus to determine plating efficiency as described herein.
For these experiments, monolayers were incubated for 1-5 days in the absence of each of the 15 amino acids present in DMEM. Cells were then infected with wild type or ICPO-virus to determine plating efficiency as described herein.
Cells were then infected with wild type or ICPO-virus to determine plating efficiency as described herein.
A. Ile deprivation and serum starvation. DMEM was prepared by dissolving all components individually, except Ile and Gln, in water according to Invitrogen's formulation for DMEM (catalog #11965) with 3 substitutions: 200 mg/l calcium chloride (anhydrous) for 264.92 mg/l calcium chloride dihydrate, 48 mg/l L-cystine for 63 mg/l L-cystine dihydrochloride, and 72 mg/l L-tyrosine for 104 mg/l L-tyrosine disodium salt, dihydrate. Medium was sterilized by passage through a 0.22 μm filter. Ile and Gln were added as needed, not more than two days prior to use, at final concentrations of 0.802 or 2 mM, respectively.
Sixty-mm petri plates were seeded with 5×10^5 cells/plate and incubated 24 h at 37° C. For Ile deprivation experiments, medium was removed and monolayers were washed with warm Hanks' Balanced Salt Solution (HBSS) (37° C.) and overlaid with 4 ml warm Ile-free DMEM with 10% dialyzed FBS and 0 or 2 mM Gln. For serum starvation experiments, medium was removed and monolayers were washed with warm HBSS and overlaid with 4 ml warm serum-free DMEM with 0.802 mM Ile and 0 or 2 mM Gln. Monolayers in Ile- or serum-free media were incubated 42 h at 37° C. Media were replaced with warm DMEM containing 10% non-dialyzed FBS, 0.802 Ile, and 2 mM Gln. At 3-h intervals monolayers were infected with wild-type or ICP0-viruses to determine plating efficiency or analyzed for cellular DNA content by flow cytometry as described below.
Infections to determine plating efficiency. Vero cell monolayers in 35-, 60-, and 100-mm plates were infected with volumes of 200 μl, 400 μl, or 2 ml/plate, respectively, with 5, 10, 20, 40, or 100 PFU/plate. For all experiments except Ile deprivation and serum starvation, titers were determined on 24-h-old Vero cell monolayers that had been seeded at a concentration of 1.5×10^5 Vero cells/35-mm plate and incubated at 37° C. […] Plates were incubated at 37° C. and shaken every 15 minutes for 1 h. Two, 4, or 10 ml of DMEM containing 5% FBS and 0.5% methyl cellulose was added to 35-, 60-, and 100-mm plates, respectively, and monolayers were incubated 3-5 days at 37° C. to allow plaques to form. Medium was aspirated, cells were stained with crystal violet, and plaques were counted.

wt (KOS) virus = conditions: Ile-free medium 42 hours, refeeding; all time points; cited from earlier work
ICP0^− (7134) virus = conditions: Ile-free medium 42 hours, refeeding; first 8 h post-release; cited from earlier work
ICP0 promoter-CAT [3] = experiment: Promoter-CAT expression in Vero cells after Ile deprivation/refeeding; type: cell-based, HSV-1; conditions: 0-6 hours post-release
Description: as §1

ICP4 promoter-CAT [4] = experiment: as above; type: cell-based, HSV-1; conditions: 0-6 hours post-release
Description: as §1

HSV = conditions: presence of L-lysine; cited from earlier work
[5] = system: wild-type virus latent in mouse trigeminal ganglia; experiment: Mouse ocular/trigeminal ganglia (TG) cell culture model of reactivation from latency; type: cell-based, HSV-1
Description: (For details on the model, see, for example, Leib et al., J. Virol. 63:759-768 (1989), Halford et al., J. Virol. 74:5957-5967. (2000), and Halford et al., J. Virol. 75:3240-3249 (2001)). For this experiment, mice were infected with the wild-type virus and 30 days later the trigeminal ganglia (TG) were removed and incubated in 3 24-well plates in medium containing acyclovir (ACV). As indicated below the x-axis of FIG. 16, on day 7 the acyclovir was removed. On day 11, 1 24-well plate was treated by: washing once with HBSS and replacing with Gln-free medium supplemented with 10% dialyzed FBS (red); washing once with HBSS and replacing with Gln-containing medium supplemented with 10% dialyzed FBS (green); or 3-hour incubation at 43° C. followed by replacement of medium with fresh medium (blue). On day 13, Gln-free and Gln-containing medium with dialyzed FBS was replaced with medium containing Gln and 10% normal FBS. On day 16, the 2 plates not previously heat shocked were incubated for 3 hours at 43° C. followed by replacement of medium with fresh medium. Starting on day 10, 10% of the volume of each well was transferred daily to 1 well of a 96-well plate previously seeded with Vero cells. After incubation at 37° C. for 7 days, monolayers of Vero cells in the 96-well plates were examined by light microscopy for cytopathic effect. […]

HSV-1 (KOS strain) = experiment: Heat-stress reactivation of latent HSV in mice treated with glutamine (Example 5); type: in vivo, mouse; conditions: intraperitoneally or orally, heat stress 43° C. water 10 minutes
Description: The strain of HSV and the method of propagation can be as described in Example 1.
The mice can be infected by, e.g., the topical ocular route, and the establishment of a corneal infection can be documented by slit lamp examination and ocular swabs on day 3 after infection. Only animals which are successfully infected are retained for use in these experiments. Thirty days after infection, groups of latently infected and uninfected mice are treated with the glutamine composition. […] The mice are treated one day before heat stress and the day of the heat stress.
The glutamine composition can be given intraperitoneally in some groups of mice and orally in others. This treatment can be continued on the day the animals are heat stressed by immersion into 43° C. water for 10 minutes. Twenty-four hours after the hyperthermic stress, the eyes are swabbed to culture any infectious virus, and the mice killed to collect the trigeminal ganglia. Ocular swabs are incubated in culture medium which is then transferred to Vero cell monolayers in 96 well culture plates. Units of infectious herpesvirus are recorded as units of cytopathic effect over a period of seven days. […] The units of cytopathic effect are recorded over a seven day incubation period. […]

In the case of `CC[C@H](C)[C@H](N)C(=O)O` [isoleucine], the “increase of ICP22/47 promoter-CAT expression” value (ICP22/47 promoter-CAT) is reported as 5 fold, the “increase of ICP0 promoter-CAT expression” value (ICP0 promoter-CAT [1]) is reported as 6 fold and the “increase of ICP4 promoter-CAT expression” value (ICP4 promoter-CAT [2]) is reported as 10 fold. For the same molecule, the “effect of deprivation/refeeding on plating efficiency of ICP0- virus” value (ICP0^− virus (n212)) was “little or no effect”, the “number of plaques produced by wild type virus” value (wt (KOS) virus) was “same number of plaques at all time points tested” and the “increase in number of plaques produced by the ICP0- virus” value (ICP0^− (7134) virus) was 6 fold. For the same molecule, the “increase of ICP0 promoter-CAT expression” value (ICP0 promoter-CAT [3]) was 6 fold and the “increase of ICP4 promoter-CAT expression” value (ICP4 promoter-CAT [4]) was 4 fold.

For `NCCCC[C@H](N)C(=O)O` [lysine, L-lysine], the “effect of deprivation/refeeding on plating efficiency of ICP0- virus” value (ICP0^− virus (n212)) is given as “slight enhancement; also recorded: slight increase”, the “enhancement of plating efficiency of ICP0- virus by deprivation/refeeding” value (ICP0^− virus (n212); separate experiment) is given as 2-3 fold and the “replication efficiency of HSV in cell culture” value (HSV) is given as “decrease the replication efficiency”.

In the case of `N=C(N)NCCC[C@H](N)C(=O)O` [arginine], the “effect of combined arginine and methionine deprivation on plating efficiency of ICP0- virus” value (ICP0^− virus (n212)) is reported as “synergistic effect”.

For `NC(=O)CC[C@H](N)C(=O)O` [glutamine], the “reactivation of wild-type virus from latency (wells positive for cytopathic effect)” value ([5]; TG incubated in 0 mM Gln (FIG. 16)) was “reactivated more rapidly and to the same extent as heat-shocked TG”, the “reactivation of wild-type virus from latency (wells positive for cytopathic effect)” value ([5]; TG incubated in the presence of 2 mM Gln (FIG. 16)) was “significantly reduced reactivation” and the “units of infectious herpesvirus on the ocular surface vs untreated heat-stressed animals” value (HSV-1 (KOS strain)) was “statistically significantly lower units of infectious herpesvirus”.

For `CSCC[C@H](N)C(=O)O` [methionine], the “effect of combined arginine and methionine deprivation on plating efficiency of ICP0- virus” value (ICP0^− virus (n212)) was “synergistic effect”.
